According to patent publication US8822448B2, “Pyrazoloquinoline compound” (Astellas Pharma Inc., priority 2010, dated 2014):
Counter-ions that a name gives are not always drawn.

These compounds were tested against PDE9 (Homo sapiens (Human), UniProt O76083) (assay: PDE9-inhibiting activity (SPA enzyme assay)). Settings: IC50 values; cGMP 1 μM substrate, 30° C.; read-out: PDE9 inhibition.
Format: biochemical
Description: The PDE9-inhibiting activity was measured by the following method. That is, to a buffer solution containing tris(hydroxymethyl)aminomethane-hydrochloric acid (40 mM, pH 8.0), magnesium chloride (5 mM), and 2-mercaptoethanol (4 mM) were added cGMP (1 μM) and ^3H-cGMP (0.33 μCi/ml) to give a substrate buffer solution. A test substance solution and an enzyme solution which had been adjusted to an optimal concentration were added thereto to perform a reaction at 30° C. The enzyme reaction was stopped by the addition of Scintillation Proximity Assay (SPA) Beads (Perkin Elmer, USA) containing 5 mM 3-isobutyl-1-methylxanthine (IBMX). For the enzyme activity, the amount of 5′-GMP, which is a reaction degradation product bound to SPA beads, was measured with a TopCount microplate reader (Hewlett Packard, USA). The inhibitory rate was calculated by taking the radioactivity of the control containing no test substance as (A), taking the radioactivity of the blank containing no enzyme as (B), and taking the radioactivity of the test substance as (C), and using the following equation.

PDE9, sequence (O76083 whole entry): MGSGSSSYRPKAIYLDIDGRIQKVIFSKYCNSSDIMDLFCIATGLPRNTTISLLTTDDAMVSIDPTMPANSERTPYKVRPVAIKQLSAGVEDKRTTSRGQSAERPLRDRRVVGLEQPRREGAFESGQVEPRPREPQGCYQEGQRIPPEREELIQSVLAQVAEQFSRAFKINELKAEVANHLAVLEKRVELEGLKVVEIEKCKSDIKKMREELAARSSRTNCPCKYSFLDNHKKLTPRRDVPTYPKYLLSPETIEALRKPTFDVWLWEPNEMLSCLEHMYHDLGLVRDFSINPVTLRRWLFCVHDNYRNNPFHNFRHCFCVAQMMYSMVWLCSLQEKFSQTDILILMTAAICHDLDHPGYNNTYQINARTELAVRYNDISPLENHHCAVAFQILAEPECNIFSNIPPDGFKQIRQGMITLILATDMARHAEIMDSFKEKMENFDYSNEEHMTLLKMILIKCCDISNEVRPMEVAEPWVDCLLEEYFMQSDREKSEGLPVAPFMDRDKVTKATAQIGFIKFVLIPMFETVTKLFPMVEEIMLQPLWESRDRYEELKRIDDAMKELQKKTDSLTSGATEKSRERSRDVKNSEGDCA

Row | SMILES | IC50
1 | Cc1cc2[nH]c(=O)c3cnn(CC4CCC4)c3c2cc1C(=O)N1C[C@@H](C)N(CCC(F)(F)F)C[C@@H]1C [Example 190] | 7.5 nM
2 | Cc1cc2[nH]c(=O)c3cnn([C@H]4CCN(C)C4)c3c2cc1C(=O)N1CCN(c2ccc(F)c(C)n2)[C@@H](C)C1 [Example 181] | 4.4 nM
3 | Cc1cc2[nH]c(=O)c3cnn([C@H]4CCOC4)c3c2cc1C(=O)N1CCC(OCC(F)(F)F)CC1 [Example 203] | 2.8 nM
4 | CCOCC1CCN(C(=O)c2cc3c(cc2C)[nH]c(=O)c2cnn(C4CCOCC4)c23)C1 (stereo not shown) [Example 92] | 6.1 nM
5 | COCCCCN1CCN(C(=O)c2cc3c(cc2C)[nH]c(=O)c2cnn(CC4CC(F)(F)C4)c23)C[C@@H]1C [Example 204] | 6.2 nM
6 | Cc1cc2[nH]c(=O)c3cnn([C@H]4CCOC4)c3c2cc1C(=O)N1CCC(OC[C@@H](C)F)CC1 [Example 220] | 16 nM
7 | Cc1cc2[nH]c(=O)c3cnn(C4CCOCC4)c3c2cc1C(=O)N1CCC(C(F)(F)F)CC1 [Example 192] | 11 nM
8 | Cc1cc2[nH]c(=O)c3cnn(CC4CCC4)c3c2cc1C(=O)N1CCN(CCC(F)(F)F)[C@@H](C)C1 [Example 211] | 1.2 nM
9 | COCCCCN1CCN(C(=O)c2cc3c(cc2OC)[nH]c(=O)c2cnn(C4CCCC4)c23)CC1 [Example 123] | 18 nM
10 | CCOCCCCN1CCN(C(=O)c2cc3c(cc2C)[nH]c(=O)c2cnn(C4CCOCC4)c23)CC1 [Example 107] | 15 nM
11 | COCCCCN1CCN(C(=O)c2cc3c(cc2C)[nH]c(=O)c2cnn(C4CCCC4)c23)C[C@@H]1C [Example 186] | 3.8 nM
12 | COCCCCN1C[C@@H]2C[C@H]1CN2C(=O)c1cc2c(cc1C)[nH]c(=O)c1cnn(C3CCOCC3)c12 [Example 145] | 8.3 nM
13 | COCCCCN(C)[C@H]1CCN(C(=O)c2cc3c(cc2C)[nH]c(=O)c2cnn(C4CCOCC4)c23)C1 [Example 127] | 5 nM
14 | Cc1cc2[nH]c(=O)c3cnn(C4CCOCC4)c3c2cc1C(=O)N1CCN(CCCOC(F)(F)F)CC1 [Example 173] | 6.3 nM
15 | COCCCN1CCN(C(=O)c2cc3c(cc2C)[nH]c(=O)c2cnn(C4CCCC4)c23)C[C@@H]1C [Example 655] | 4.7 nM
16 | CCOCCC1CCN(C(=O)c2cc3c(cc2C)[nH]c(=O)c2cnn(C4CCOCC4)c23)CC1 [Example 168] | 4.3 nM
17 | CCOCC1CCN(C(=O)c2cc3c(cc2C)[nH]c(=O)c2cnn([C@H]4CCOC4)c23)CC1 [Example 148] | 5.1 nM
18 | COCCC1CCN(C(=O)c2cc3c(cc2C)[nH]c(=O)c2cnn([C@H]4CCOC4)c23)CC1 [Example 668] | 9.8 nM
19 | Cc1cc2[nH]c(=O)c3cnn(CC4CC4)c3c2cc1C(=O)N1C[C@@H](C)N(CCC(F)(F)F)C[C@@H]1C [Example 188] | 14 nM
20 | Cc1cc2[nH]c(=O)c3cnn(C4CCOCC4)c3c2cc1C(=O)N1CCN(CCCC(F)(F)F)CC1 [Example 139] | 3 nM
21 | Cc1cc2[nH]c(=O)c3cnn(C4CCOCC4)c3c2cc1C(=O)N1CCN(CCC(F)(F)F)[C@@H](C)C1 [Example 207] | 1.7 nM
22 | Cc1cc2[nH]c(=O)c3cnn([C@H]4CCN(C)C4)c3c2cc1C(=O)N1CCN(c2ccc(F)c(C)n2)[C@H](C)C1 [Example 182] | 5.5 nM

Row | SMILES | IC50
23 | COCCCN1CCN(C(=O)c2cc3c(cc2C)[nH]c(=O)c2cnn(C4CCC(F)(F)CC4)c23)C[C@@H]1C [Example 624] | 10 nM
24 | COCCCN1CCN(C(=O)c2cc3c(cc2C)[nH]c(=O)c2cnn(CC4CC4)c23)C[C@@H]1C [Example 640] | 3.3 nM
25 | Cc1cc2[nH]c(=O)c3cnn(C4CCOCC4)c3c2cc1C(=O)N1CC2CN(Cc3ccccc3)CC2C1 (stereo not shown) [Example 74] | 12 nM
26 | Cc1cc2[nH]c(=O)c3cnn([C@H]4CCOC4)c3c2cc1C(=O)N1CCC(OC[C@H](C)F)CC1 [Example 178] | 4.4 nM
27 | CCOCCCCN1CCN(C(=O)c2cc3c(cc2C)[nH]c(=O)c2cnn([C@H]4CCOC4)c23)CC1 [Example 660] | 28 nM
28 | CCCOC1CCN(C(=O)c2cc3c(cc2C)[nH]c(=O)c2cnn([C@H]4CCOC4)c23)CC1 [Example 199] | 4.7 nM
29 | COCCCCN1CCN(C(=O)c2cc3c(cc2C)[nH]c(=O)c2cnn(CC4CC4)c23)C[C@@H]1C [Example 195] | 4.4 nM
30 | COCCCCN1C[C@H](C)N(C(=O)c2cc3c(cc2C)[nH]c(=O)c2cnn(CC4CCC4)c23)C[C@H]1C [Example 189] | 6.9 nM
31 | Cc1cc2[nH]c(=O)c3cnn([C@H]4CCOC4)c3c2cc1C(=O)N1CCC(OC2CCC2)CC1 [Example 202] | 3.7 nM
32 | Cc1cc2[nH]c(=O)c3cnn(C4CCOCC4)c3c2cc1C(=O)N1CCN(Cc2cccnc2)CC1 [Example 2, 7-methyl-8-{[4-(pyridin-3-ylmethyl)piperazin-1-yl]carbonyl}-1-(tetrahydro-2H-pyran-4-yl)-1,5-dihydro-4H-pyrazolo[4,3-c]quinolin-4-one dihydrochloride] | 12 nM
33 | Cc1cc2[nH]c(=O)c3cnn(CC4CC4)c3c2cc1C(=O)N1CCN(CCC(F)(F)F)[C@@H](C)C1 [Example 210] | 1.3 nM
34 | COCCCCN1C[C@H](C)N(C(=O)c2cc3c(cc2C)[nH]c(=O)c2cnn(CC4CC4)c23)C[C@H]1C [Example 187] | 8.4 nM
35 | COc1cc2[nH]c(=O)c3cnn(C4CCCC4)c3c2cc1C(=O)NCC(C)(C)N1CCOCC1 [Example 119] | 8.9 nM
36 | Cc1cc2[nH]c(=O)c3cnn(C4CCOCC4)c3c2cc1C(=O)N1CCC2(CCCO2)CC1 [Example 87] | 12 nM
37 | COCCCN1CCN(C(=O)c2cc3c(cc2C)[nH]c(=O)c2cnn(CC4CCC4)c23)C[C@@H]1C [Example 648] | 2 nM
38 | COCCCN1CCN(C(=O)c2cc3c(cc2C)[nH]c(=O)c2cnn(C4CCC4)c23)C[C@@H]1C [Example 179] | 6.8 nM
39 | CCOCCC1CCN(C(=O)c2cc3c(cc2C)[nH]c(=O)c2cnn([C@H]4CCOC4)c23)CC1 [Example 201] | 6.6 nM
40 | Cc1cc2[nH]c(=O)c3cnn([C@H]4CCOC4)c3c2cc1C(=O)N1CCC(OCC2CC2)CC1 [Example 198] | 3.2 nM
41 | Cc1cc2[nH]c(=O)c3cnn(C4CCOCC4)c3c2cc1C(=O)N1CCC2(CC1)COc1ccccc12 [Example 283] | 5.9 nM
42 | COCCCCN1CCN(C(=O)c2cc3c(cc2C)[nH]c(=O)c2cnn(CC4CCOCC4)c23)CC1 [Example 154] | 32 nM
43 | Cc1cc2[nH]c(=O)c3cnn(C4CCOCC4)c3c2cc1C(=O)N1CC(N(C)CCC(F)(F)F)C1 [Example 150] | 8 nM
44 | Cc1cc2[nH]c(=O)c3cnn(C4CCOCC4)c3c2cc1C(=O)N1CCN(c2cnccn2)CC1 [Example 50] | 7.5 nM

Row | SMILES | IC50
45 | COCCCCN1C[C@H](C)N(C(=O)c2cc3c(cc2C)[nH]c(=O)c2cnn(C4CCOCC4)c23)C[C@H]1C [Example 183] | 3.5 nM
46 | Cc1cc2[nH]c(=O)c3cnn([C@H]4CCOC4)c3c2cc1C(=O)N1CCN(CCC(F)(F)F)CC1 [Example 185] | 19 nM
47 | Cc1cc2[nH]c(=O)c3cnn(C4CCOCC4)c3c2cc1C(=O)N1C[C@@H](C)N(CCC(F)(F)F)C[C@@H]1C [Example 184] | 4.7 nM
48 | COCCCCN1CCN(C(=O)c2cc3c(cc2C)[nH]c(=O)c2cnn(C4CCC4)c23)C[C@@H]1C [Example 146] | 5.2 nM
49 | Cc1cc2[nH]c(=O)c3cnn(C4CCOCC4)c3c2cc1C(=O)N1CCC(OCC(F)F)CC1 [Example 94] | 1.7 nM
50 | Cc1cc2[nH]c(=O)c3cnn(C4CCCC4)c3c2cc1C(=O)N1CCN(CCC(F)(F)F)[C@@H](C)C1 [Example 212] | 2.4 nM
51 | COCC(F)(F)CN1CCN(C(=O)c2cc3c(cc2C)[nH]c(=O)c2cnn([C@H]4CCOC4)c23)CC1 [Example 166] | 10 nM
52 | CCc1cc2[nH]c(=O)c3cnn(C4CCC4)c3c2cc1C(=O)N1CCN(CCC(F)(F)F)CC1 [Example 162] | 7 nM
53 | Cc1cc2[nH]c(=O)c3cnn(C4CCOCC4)c3c2cc1C(=O)N1CCC(OC2CCC2)CC1 [Example 169] | 2.5 nM
54 | CCOCCCN1CCN(C(=O)c2cc3c(cc2C)[nH]c(=O)c2cnn(C4CCC4)c23)CC1 [Example 70] | 17 nM
55 | Cc1cc2[nH]c(=O)c3cnn([C@H]4CCOC4)c3c2cc1C(=O)N1CCN(CCCOC(F)(F)F)CC1 [Example 219] | 15 nM
56 | CCN1CCN(C(=O)c2cc3c(cc2C)[nH]c(=O)c2cnn(C4CCN(C)CC4)c23)C[C@@H]1c1ccccc1 [Example 214] | 16 nM
57 | Cc1cc2[nH]c(=O)c3cnn([C@H]4CCOC4)c3c2cc1C(=O)N1CCN(CCCC(F)(F)F)CC1 [Example 200] | 9 nM
58 | CCc1cc2[nH]c(=O)c3cnn(C4CCOCC4)c3c2cc1C(=O)N1CCN(CCCCOC)[C@H](C)C1 [Example 129] | 1.1 nM
59 | COCCCCN1CCN(C(=O)c2cc3c(cc2C)[nH]c(=O)c2cnn(C4CCC(F)(F)CC4)c23)C[C@@H]1C [Example 193] | 5.7 nM
60 | Cc1cc2[nH]c(=O)c3cnn(C4CCOCC4)c3c2cc1C(=O)N1CCC(O)(C(F)(F)F)CC1 [Example 221] | 24 nM
61 | CCOCC1CCN(C(=O)c2cc3c(cc2C(F)(F)F)[nH]c(=O)c2cnn(C4CCOCC4)c23)CC1 [Example 152] | 53 nM
62 | Cc1cc2[nH]c(=O)c3cnn([C@H]4CCOC4)c3c2cc1C(=O)N1CCC(OCC(C)(F)F)CC1 [Example 191] | 9.5 nM
63 | Cc1cc2[nH]c(=O)c3cnn(C4CCOCC4)c3c2cc1C(=O)N1CCN(CC(F)(F)F)CC1 [Example 427] | 20 nM
64 | Cc1cc2[nH]c(=O)c3cnn(C4CCC4)c3c2cc1C(=O)N1CCN(CCC(F)(F)F)CC1 [Example 161] | 31 nM
